Measurements published in a melting point compilation (Tetko et al.; mined from patent text by program, amines drawn as free bases though some values may be those of a salt).

| Structure (SMILES) | melting point |
| --- | --- |
| CC(=O)Nc1ccc(Sc2ccc(Br)cc2)cc1 | 153 to 155 °C |
| CCCC(C)CC(C)(C)NC(=O)CN1C(=O)c2ccccc2C1=O (stereo not given) | 132 °C |
| CCCCC(=O)NC(C#N)C(=O)OCC (stereo not given) | 88 °C |
| NC(=O)c1c(OCc2c(F)cc(Br)cc2F)nsc1NC(=O)NCCCCN1CCCC1 | 208 °C |
| COc1cccc(N(CCN2CCC(C(=O)c3ccc(F)cc3)CC2)C(=O)c2ccc(N)cc2)c1 | 126 to 128 °C |
| COc1cc(Oc2ccc(C(=O)N(C(C)C)C3CCCCC3)cc2)cc(OC)c1OC | 124 °C |
| CC(=O)NNC(COCc1cc(C)cc(C)c1)C1c2ccccc2C=Cc2ccccc21 (stereo not given) | 115 to 117 °C |
| Cc1cccc(SCc2ccc3nc(NC4CCN(C)CC4)n(Cc4nc(C)ccc4O)c3c2)c1 | 202 °C |
| IC#CCSc1ccncc1 | 140 °C |
| CN(C)C(=O)NCC(C)(C)c1ccc2nc(-c3ccncc3)[nH]c2c1 | 136 to 138 °C |
| Clc1c(Cl)c(Cl)c2[nH]c(NC3=NCCN3)nc2c1Cl | 310 °C |
| CCn1nc(C(=O)OC)cc1C | 165 to 168 °C |
| CCOC(=O)CC(C(=O)OCC)N1CCN(CC2CN(c3ccc(C(=N)NC(=O)c4ccccc4)cc3)C(=O)O2)CC1 (stereo not given) | 136 °C |
| CCCCn1c(=O)n(C)c(=O)c2nc(-c3ccc(/C=C/C(=O)O)cc3)[nH]c21 | > 300 °C |
| CC1(CO)OCC2(CO1)COC(C)(CO)OC2 (stereo not given) | 127 to 128 °C |
| Nc1nc2ccccc2c2c1nc(-c1ccccc1)n2CCOc1ccccc1 | 182 to 185 °C |
| CCCC(=O)c1cc2c(=O)cc(C(=O)O)[nH]c2c(C)c1C | 267 to 269 °C |
| Cc1c(SCCCSc2ccncc2)ccnc1CSc1ccncc1 | 116 to 118 °C |
| CSc1nsc(NC(=O)C(C)(C)C)c1C(N)=O | 142 to 143 °C |
| O=C(C[C@@H](CCCC1CCCCC1)c1nc(CNC2CCOCC2)no1)NO | 109 to 110 °C |
| COc1cccc2c1-c1ccc(NS(C)(=O)=O)cc1C(c1cccc(N(C)C(C)=O)c1)O2 (stereo not given) | 165 to 168 °C |
| CS(=O)(=O)c1ccc(-c2cnn(CC(=O)c3ccccc3)c(=O)c2-c2ccc(F)cc2)cc1 | 228 to 230 °C |
| CCC(CC)Nc1cc(C)nc(Nc2c(C)cc(C)cc2C)c1N | 213 to 216 °C |
| Cc1c(N)c(C)c2c(-c3ccc(C4CCCCC4)cc3)coc2c1C | 139 to 140 °C |

| Structure (SMILES) | melting point |
| --- | --- |
| Cn1nnc2ccc(C(c3cccs3)n3ccnc3)cc21 (stereo not given) | 157 °C |
| O=C(Nc1ccc(F)cc1)NC1CCN(C(=O)c2cccnc2)CC1 | 118 to 122 °C |
| O=S1(=O)c2cccc3cccc(c23)N1CCN1CCC(Cc2cnc3ccccc3c2)CC1 | 150 °C |
| NC(=O)c1cc2c(c3nc(O)c(O)nc13)CCCC2 | > 300 °C |
| Cc1cccc2c1nc(-c1c(F)cccc1F)n2Cc1cccnc1 | 131 to 132 °C |
| COc1cc2c(cc1OC)C(C)(C)C(/C=C/C(=O)N1CCC(CCCC3CCN(C(=O)/C=C/C4=Cc5cc(OC)c(OC)cc5C4(C)C)CC3)CC1)=C2 | 192 to 194 °C |
| O=C1N=C(N2CCOCC2)SC1=Cc1cc(-c2ccc(O)c(C34CC5CC(CC(C5)C3)C4)c2)ccc1O | 325 to 330 °C |
| COC(=O)N=C(NC(=O)OC)Nn1cccc1C(=O)OC | 160 °C |
| COc1cc(CC(=O)CCNCCOc2ccc(C(=O)O)cc2OC)ccc1NC(=O)Nc1ccccc1F | 105 to 110 °C |
| COc1c(-c2noc3ccsc23)ccc2c1O2 | 88 to 90 °C |
| CCCc1c2cc(C(=O)OCC)oc2cc2c(=O)cc(C(=O)OCC)oc12 | 145 to 147 °C |
| CCc1c2ccccc2nc2c1c(C)nn2-c1ccccn1 | 112 to 114 °C |
| Cc1cc(O)c(F)cc1Br | 44 to 46 °C |
| CNc1nc(-c2cccc(NC(=O)c3ccc4c(c3)OCO4)c2)c2cc(OC)c(OC)cc2n1 | 205 to 207 °C |
| COc1ccc(CCN2CCc3cc(OC[C@H]4CO[C@](Cn5ccnc5)(c5ccc(Cl)cc5Cl)O4)ccc3C2)cc1 (racemic) | 121 to 122 °C |
| Cc1c(NC(=O)c2ccc(-c3ccc(F)cc3)cc2)ccc2cc(C(C)N3CCCCC3)cnc12 (stereo not given) | 168 to 170 °C |
| C=C1[C@H](O)C[C@H](O[Si](C)(C)C(C)(C)C)[C@H]1CO[Si](C)(C)C(C)(C)C | 64 to 66 °C |
| Cc1ccc2c(c1)C(C(=S)Nc1c(C(C)C)cccc1C(C)C)c1ccccc1CO2 (stereo not given) | 140 °C |
| N#CCN1C(=O)COc2cc(F)c(-n3c(=O)n4n(c3=O)CCCC4)cc21 | 286 to 287 °C |
| [O-][N+]1=C(c2ccccc2F)c2cc(Cl)ccc2-n2cnc(N3CCCC3)c2C1 | 190 to 192 °C |
| O=C(Nc1ccccc1Sc1c(Cl)cncc1Cl)N[C@@H](Cc1ccc(NC(=O)c2c(Cl)cncc2Cl)cc1)C(=O)O | 211 °C |
| N#Cc1cc2c(cc1F)OCC21C(=O)N(Cc2ccccc2C(F)(F)F)c2ccccc21 (stereo not given) | 193 to 195 °C |
| CC(C)(C)OC(=O)Nn1c(=O)cc2n(C3CC3)c3cc(N4CCN(C(=O)OC(C)(C)C)CC4)c(F)cc3n2c1=O | 219 to 220 °C |
| CC(C(C#N)C(=O)O)C(C)(C)C (stereo not given) | 68 to 78 °C |

More lines, now with the values ahead:

| melting point | Structure (SMILES) |
| --- | --- |
| > 300 °C | O=C(Nc1cccc(C(F)(F)F)c1)Nc1nccnc1C(=O)O |
| 187 to 189 °C | CCOC(=O)C1=C(C)NC(C)=C(c2nnco2)C1c1cccc(Cl)c1Cl (stereo not given) |
| 160 to 161 °C | CN(C)C(N)=Nc1cc(S(C)=O)ccc1N1CCOCC1 (stereo not given) |
| 106 to 108 °C | ClCCOc1ccc(Cl)c2[nH]cc(Cl)c12 |
| 153 °C | Cc1nc2c(OC3SCC(O)C(O)C3O)cccc2n1C (stereo not given) |
| 162 to 164 °C | COC(=O)C1=Cc2cc(Br)ccc2S(=O)(=O)CC1 |
| 217 to 220 °C | CCOc1cc(-c2nc3ccccc3[nH]2)n[nH]1 |
| 262 to 266 °C | O=C(O)Cn1c(=O)sc2cc(-c3ccccc3)c(Cl)cc21 |
| 214 °C | N#Cc1nn(-c2c([N+](=O)[O-])cc(C(F)(F)F)cc2[N+](=O)[O-])c(N)c1SC(F)(F)F |
| 280 °C | CCCCn1ccc(-c2ccc(Oc3ccc(C(=O)O)cc3)cc2)c(Cl)c1=O |
| 174 to 176 °C | CN1C(=O)N(C)C(O)(c2ccccc2)c2cc(Cl)ccc21 (stereo not given) |
| 83 to 84.5 °C | O=c1oc(-c2cccc(Cl)c2)ns1 |
| 66 to 68 °C | Cc1ncccc1NC(=NC#N)NC(NC(=O)CCCc1cccs1)C(C)(C)C (stereo not given) |
| 82 to 83 °C | Oc1cccc2c(Oc3ccccc3)cccc12 |
| 250 to 252 °C | N#Cc1ccc(S(=O)(=O)Nc2cccc3c(C#N)c[nH]c23)cc1 |
| 121 to 122 °C | O=S(=O)(c1ccccc1)n1c(Sc2cc(Cl)cc(Cl)c2)cc2cc(Cl)ccc21 |
| 119 to 121 °C | CC(C)(C#N)c1cc(CCl)cc(C(C)(C)C#N)c1 |
| 58 to 59.5 °C | C=CCOc1cc([N+](=O)[O-])ccc1Cl |
| 137 °C | CCOC(=O)NCc1cc(-c2ccc(Cl)cc2)no1 |
| 130 to 132 °C | N#Cc1ccc(OCCCCOc2cccc(-c3cc4cc(C#N)ccc4o3)c2)cc1 |
| 164 to 166 °C | CCOC(=O)c1ccc2c(c1)nc(-c1c(Cl)cccc1Cl)n2C |
| 170 to 172 °C | O=c1c2cccnc2c(-c2cccc(Cl)c2)cn1Cc1ccncc1 |
| 206 to 208 °C | NC(=O)c1ccnc(N2CCN(Cc3ccc(F)cc3)C2=O)c1 |
| 98 to 100 °C | CC(C)=CCC/C(C)=C/CSc1nc2ccccc2[nH]1 |
| 115 to 117 °C | CCOC(=O)COc1cc(-n2ncc(=O)n(C)c2=O)c(Cl)cc1Cl |
| 55 to 57 °C | COC(=O)CCCc1cc2c(Cl)c(C#N)cnc2s1 |

| melting point | Structure (SMILES) |
| --- | --- |
| 270 to 278 °C | COc1ccc(C(=O)Nc2c(Cl)cncc2Cl)c2c(CC(=O)O)coc12 |
| 48 to 50 °C | O=C(O)CSCCCCOc1ccccc1 |
| 151 to 153 °C | O=CNC1=NN(c2ccc(Cl)c(Cl)c2)CC1 |
| 200 to 207 °C | CNC(=O)c1ccccc1Nc1nc(Nc2ccc3c(c2)N(C)CCN(S(C)(=O)=O)C3)ncc1Cl |
| 150 to 151 °C | Nc1ccccc1Oc1ccccc1C(=O)O |
| 180 to 183 °C | COc1nc(Nc2cc(C)ccc2N)nc(OC)n1 |
| 50 °C | O=C(c1ccsc1)c1cccc2ccccc12 |
| 170 to 172 °C | CC(=O)N1c2ccccc2-c2c(N)cnn2C1C (stereo not given) |
| 167 °C | CC(C)C1CNCc2cccc3[nH]c(=O)n1c23 (stereo not given) |
| 151 to 152 °C | COc1cc2c(cc1OS(N)(=O)=O)CCN(Cc1cccc(NS(C)(=O)=O)c1)C2 |
| 160 to 162 °C | CCOC(=O)C1CC(=C2CCN(c3ccccc3)C2=O)c2ccc(Cl)cc2N1 (stereo not given) |
| 82 to 83 °C | C=CCN1CCCCNC1=C[N+](=O)[O-] |
| 150 to 155 °C | COc1ccc(-c2ncccc2O)cc1OC |
| 157 to 158 °C | O=C(c1ccc(F)cc1)C1CCN(CCN(C(=O)c2ccc([N+](=O)[O-])cc2)c2ccccc2C(F)(F)F)CC1 |
| 171 to 173 °C | O=C(O)CC(=O)Nc1ccccc1C(=O)O |
| 188 to 192 °C | CCOC(=O)c1cc(O)c(C(=O)c2ccc(Cl)cc2)c([N+](=O)[O-])c1 |
| 100 to 103 °C | COC(=O)CN(c1ccc(OC)cc1OC)S(N)(=O)=O |
| 77 to 79 °C | NC(=O)C(Oc1ccc(Cl)cc1)(C(F)(F)F)C(F)(F)F |
| 60 to 65 °C | CCNc1nc(C(F)(F)F)nc(NCC)c1[N+](=O)[O-] |
| 172 °C | COCCNc1nccc(-c2ccnc(Nc3cccc(Cl)c3)n2)c1Cl |
| 108 to 109 °C | CCOC(=O)c1conc1-c1ccc(F)c(Cl)c1 |
| 152 to 155 °C | CC(C)c1nc(COCc2ccccc2)n(Cc2ccccc2)c1Sc1cccc([N+](=O)[O-])c1 |
| 202 to 204 °C | COc1ccc2c(c1)C(C)(Cl)C(=S)N2 (stereo not given) |
| 163 to 166 °C | COC(=O)COc1ccc(-c2coc3cc(OCC(=O)OC)ccc3c2=O)cc1 |
| 297 °C | O=C(O)C1C(=O)c2cc(F)ccc2N=C1c1ccccc1 (stereo not given) |
| 289 to 290 °C | COc1ccc(-c2ccc(C#N)cc2)cc1-c1nc2cc(C#N)ccc2[nH]1 |
